Measured values reported in patent US9877949B2, “Anticancer treatment methods involving analogs and derivatives of 3-(2-substituted-ethyl) indole compounds” (TUSKEGEE UNIVERSITY, priority 2013, dated 2018).
Several values for one entry are separate records, joined by “and”; a condition that tells them apart may be missing. Equal values may be shown once. Read-outs that look alike come from different tables or passages of the source.

Assays:
SW480 colon cancer cells [1] = experiment: Microscopic evaluation of cell proliferation; format: cell-based; conditions: SW480, 25 μM, 24 and 48 hours
Experimental: (§1) SW480 colon cancer cells were treated with either vehicle control (DMSO) or 25 μM 3-(2-bromoethyl) indole. […] By comparison, vehicle-treated cells rapidly proliferated and visibly filled the surface on which they were seeded. Microphotographs were taken 24 hours (a and c) and 48 hours (b and d) after the treatments. […] To further examine the possibility of inhibited cell proliferation, cell cycle analysis was performed by flow cytometry on cells that were treated with 50 μM 3-(2-bromoethyl) indole for 24 and 48 hours. […] In fact, the specific effect of treating cells with 3-(2-bromoethyl) was to “freeze” the cell growth during treatment. This is illustrated in FIG. 3.
Increasing concentrations of 3-(2-bromoethyl) indole (from 12.5 μM to 100 μM) were tested on SW480 colon cancer cells, and viability of the treated cells was measured by the CellTiter-Glo® (Promega® Corporation) method. […] Similarly, dose response examination and cell cycle analysis using variable concentrations of 3-(2-bromoethyl) indole ranging from 12.5 to 100 μM confirms that even doses lower than 50 μM inhibit cell proliferation. […]

SW480 cancer cells = experiment: Cell cycle analysis by flow cytometry; format: cell-based
Experimental: as §1
(§2) Increasing concentrations of 3-(2-bromoethyl) indole (from 12.5 μM to 100 μM) were tested on SW480 colon cancer cells, and viability of the treated cells was measured by the CellTiter-Glo® (Promega® Corporation) method. […] Similarly, dose response examination and cell cycle analysis using variable concentrations of 3-(2-bromoethyl) indole ranging from 12.5 to 100 μM confirms that even doses lower than 50 μM inhibit cell proliferation. Thus, useful embodiments of the present invention provide for a method of inhibiting cancer cell proliferation, comprising treating the cancer cells with 3-(2-bromoethyl) indole with concentrations of greater than or equal to 0.2 μM, or in a range of 1.0 μM to 50.0 μM, or more specifically, from 5.0 μM to 25.0 μM.
It was also examined by flow cytometry whether the combination of CPT and BEI-9 would induce cell apoptosis as measured by accumulation of sub-G1 population. […] Referring to FIG. 17, cell cycle profiles of parental SW480 cells treated with DMSO (a), BEI-9 (b), CPT (c), BEI-9 and CPT co-treatment (d) or 24 hours of CPT followed by 24 hours of only BEI-9 (e) are shown. The short arrow points to the sub-G1 population of cells resulting from the combination treatment.

NF-kB [2] = experiment: NF-kB luciferase reporter assay in SW480-NFL cells; format: cell-based
Text: One of the regulators of cyclin D1 is the multifunctional transcription factor NF-kB. The effect of 3-(2-bromoethyl) indole on NF-kB signaling was also examined. […] In carrying out the test, NF-kB reporter SW480 cells (SW-NFL) were used. The cells were stably transduced with a construct containing NF-kB-response elements linked to the luciferase gene as the reporter. Previous work has shown that these cells activate NF-kB in response to TNFα, as well as some clinically used chemotherapeutic drugs. As an experimental response to NF-kB activation, these cells express increased amounts of luciferase enzyme, which can be detected by luminescence assay.
First, the effect of 3-(2-bromoethyl) indole and each of the thirteen other indole compounds on the basal levels of luciferase activity was assessed. An equal number of SW480-NFL cells seeded in a 96-well plate were treated with control vehicle (DMSO) or one of the fourteen indole-derivative test compounds. Luciferase enzyme activity was measured 24 hours after the treatment. […] See FIG. 12, where BEI-9 is the 9th indole test sample depicted in the graph.
(§3) Second, it was determined whether cytokine-induced NF-kB activation can be blocked by 3-(2-bromoethyl) indole. In prior studies, SW480-NFL cells were tested and confirmed as being responsive to TNFα, a canonical NF-kB pathway inducer, and various clinical chemotherapeutic drugs. To this end, TNFα was first used to activate NF-kB in these reporter cells. It was examined whether co-treatment would interfere with activation of the NF-kB pathway. SW480-NFL cells were treated with 25 ng/ml TNFα as an activator, and with 0.5 μM, 5 μM, or 10 μM BEI-9 as test compound. […] The effect of such a combination treatment is shown in the […] microphotograph in FIG. 14. Referring to FIG. 14, microphotographs were taken of SW480 cells treated with vehicle control (DMSO) (top left), 25 ng/ml TNFα (top right), 5 μM 3-(2-bromoethyl) indole (bottom left), and a combination of 25 ng/ml TNFα and 5 μM 3-(2-bromoethyl) indole (bottom right). Accordingly, in addition to inhibiting NF-kB activation, the addition of 3-(2-bromoethyl) indole to TNFα treated cells may divert TNF receptor-initiated receptor signaling towards apoptosis.
In prior art, it has been shown that camptothecin (also referred to herein as “CPT”), one of adjuvant drugs clinically used to treat various types of cancers, activates NF-kB in SW480 reporter cells at peak activating concentrations of 0.5 μM or 1.0 μM. The consequence of NF-kB activation as a result of treatment with adjuvant chemotherapy drugs is still under study. To examine whether a combination of CPT with BEI-9 suppresses a drug-induced NF-kB response in SW480 reporter cells, such cells were treated with 0.5 μM CPT and varying concentrations (0.2 μM-12.5 μM) of BEI-9.

HCT116 cells [3] = experiment: MTS assay viability index; format: cell-based; conditions: HCT116, variable concentrations
Experimental: (§4) The activity of 3-(2-bromoethyl) indole on another colon cancer cell line, HCT116, was also tested. […] The absorbance reading at a wavelength of 490 nm is shown on the Y-axis.

HCT116 cells [4] = experiment: Microphotograph dose response of proliferation; format: cell-based; conditions: 5 μM and 10 μM
Experimental: as §4

cyclin A = experiment: Immunoblotting of cyclin A protein level; format: cell-based; conditions: SW480, immunoblotting
Experimental: (§5) Progression through the cell cycle is regulated by cyclins and their enzyme partner, cyclin dependent kinases (CDK). The regulation of the cyclin-CDK pair activity is controlled by synthesis and degradation of the cyclin moiety. Cyclin D1 is one of the regulatory cyclins involved in the G1-S transition of cells, and is a known oncogene. As cyclin D1 is a key regulator of cell cycle progression, levels of cyclin D1 protein in both control cells and treated cells were assessed by immunoblotting. Also assessed were the levels of cyclin A, another cyclin regulating both G1-S as well as G2-M transitions. […] Accordingly, inhibiting the expression of cyclins likely contributes to the observed “freezing” effect described previously.

SW480 colon cancer cells [5] = experiment: MTT assay of cell viability and proliferation; format: cell-based
Experimental: SW480 colon cancer cells were treated with solvent DMSO (CONT), staurosporine (STS)—an agent that is known to kill cancer cells—and four select indole derivative compounds. Cell viability and proliferation was examined under a MTT assay protocol. […] The control solvent is shown as in FIG. 1A as the bar corresponding to “CONT.” When treated with only the control solvent, the cancer cells are 100% viable. Yet, according to FIG. 1A, treating cancer cells with 3-(2-bromoethyl) indole reduces cancer cell viability and proliferation by about 60% within 48 hours. As noted in FIG. 1A, 3-(2-bromoethyl) indole is represented by “INDOLE 9.” By comparison, a similar concentration of indole-3-carbinol reduces cell proliferation only by about 30%. As noted in FIG. 1A, indole-3-carbinol is represented by “INDOLE 14.”

luciferase [6] = molecular target: T1, luciferase (Photinus pyralis, UniProt P08659); format: cell-based; conditions: HepG2 PXR-luciferase, 10 μM added five minutes before measuring
T1 construct: expressed in transfected cells; host or cells: HepG2
T1 sequence (P08659 whole entry, species assumed): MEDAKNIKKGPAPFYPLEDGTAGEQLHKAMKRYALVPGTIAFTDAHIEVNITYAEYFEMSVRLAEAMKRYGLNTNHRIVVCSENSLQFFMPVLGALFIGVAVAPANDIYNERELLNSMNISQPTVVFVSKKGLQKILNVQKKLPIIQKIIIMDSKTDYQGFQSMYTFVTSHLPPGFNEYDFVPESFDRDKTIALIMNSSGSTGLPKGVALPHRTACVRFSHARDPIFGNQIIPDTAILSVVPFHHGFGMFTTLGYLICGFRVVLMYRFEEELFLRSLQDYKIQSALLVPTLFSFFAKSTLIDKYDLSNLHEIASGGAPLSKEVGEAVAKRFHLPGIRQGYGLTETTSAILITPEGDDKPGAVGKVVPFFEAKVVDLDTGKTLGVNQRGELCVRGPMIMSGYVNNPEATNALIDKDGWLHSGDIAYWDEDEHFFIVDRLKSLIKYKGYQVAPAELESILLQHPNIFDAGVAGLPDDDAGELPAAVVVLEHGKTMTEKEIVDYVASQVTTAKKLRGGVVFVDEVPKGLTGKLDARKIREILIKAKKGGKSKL
Experimental: (§6) Luciferase reporter assays are dependent on the activity of the luciferase enzyme to catalyze the conversion of luciferin to oxyluciferin in the presence of ATP and oxygen, generating light in the process. Therefore, compounds that may directly interfere with the enzyme activity should be distinguished from those that inhibit the signaling activity reported inside the cells. To test this, a PXR-luciferase reporter system expressed in HepG2 cells was used and a luciferase assay was performed by adding 10 μM BEI-9 to the cells five minutes before measuring luciferase catalyzed reactions. In parallel, ATP-dependent cell viability was also measured using a CellTiter-Glo® kit to examine if BEI-9 would compete with cellular ATP, which is required for the luciferase activity.

cyclin D1 = experiment: Immunoblotting of cyclin D1 protein level; format: cell-based; conditions: SW480, immunoblotting
Experimental: as §5

SW480 cells [7] = experiment: Microphotographs of cells for signs of apoptosis (membrane blebs); format: cell-based; conditions: for sign of cell apoptosis, single agent: SW480, 25 ng/ml TNFα alone or 5 μM 3-(2-bromoethyl) indole alone
Experimental: Microphotographs were taken of SW480 cells treated with vehicle control (DMSO) (top left), 25 ng/ml TNFα (top right), 5 μM 3-(2-bromoethyl) indole (bottom left), and a combination of 25 ng/ml TNFα and 5 μM 3-(2-bromoethyl) indole (bottom right).
as §3

SW480 colon cancer cells [8] = experiment: Recovery after wash-out of compound; format: cell-based; conditions: SW480, 25 μM for 48 hours, then four days in fresh medium
Experimental: To examine if treated cells would recover after the compound was washed out, SW480 colon cancer cells were treated with 25 μM 3-(2-bromoethyl) indole for 48 hours, then the monolayer was rinsed 3 times with culture medium to remove the compound. The cell monolayers were left in the fresh growth medium for four days of further incubation. Results shown in FIG. 10 reveal that the vehicle-treated SW480 cells rapidly grew to full confluency in just 48 hours.

luciferase [9] = experiment: ATP-dependent cell viability with CellTiter-Glo kit, competition with cellular ATP; format: cell-based; conditions: 10 μM
Experimental: as §6

SW480 cells [10] = experiment: Scratch wound healing assay; format: cell-based; conditions: SW480, 25 μM, up to 96 hours
Experimental: Scratch wound healing assay was performed on SW480 cells grown to confluence. Confluent SW480 cells were scratched with a pipette tip to create cell wounds, which were treated with vehicle control solvent (DMSO) and 25 μM 3-(2-bromoethyl) indole. The ability of the cells to migrate and fill the gap created by the scratch was evaluated. […] By comparison, vehicle-treated cells filled the scratch within 96 hours. […] The ability of the cells to migrate and fill the gap was followed by light microscopy imaging at 24-hour intervals. […] The scratch wound is most visible as a clear space at t0. […] Only a few single cells treated with 3-(2-bromoethyl) indole were visible and scattered in the gap. Moreover, there was no evidence of cell division.

SW480 colon cancer cells [11] = experiment: CellTiter-Glo cell viability; format: cell-based; conditions: Homo sapiens; SW480, 12.5 μM; read-out: reduction in cell viability
Experimental: as §2

NF-kB [12] = conditions: SW480 reporter cells; cited from earlier work

## BrCCc1c[nH]c2ccccc12 [3-(2-bromoethyl) indole]
SW480 colon cancer cells [1]
  cell proliferation by microscopic evaluation: failed to multiply
SW480 cancer cells; SW480, 50 μM, 24 and 48 hours
  cell cycle profile, proliferation: effectively prevents proliferation
SW480 cancer cells; SW480, 24 and 48 hours after treatment
  induction of sub-G1 population indicative of apoptosis: no apparent induction of sub-G1 population
SW480 cancer cells; SW480, CPT for 24 hours followed by BEI-9 for 24 hours
  apoptosis as accumulation of sub-G1 population, sequential treatment: appearance of a distinct sub-G1 population
SW480 cancer cells; SW480, dose response examination and cell cycle analysis, 12.5 to 100 μM
  doses that inhibit cell proliferation: lower than 50 μM
SW480 cancer cells; SW480, flow cytometry
  apoptosis as accumulation of sub-G1 population, co-treatment of CPT and BEI-9: did not induce apoptosis
  apoptosis as accumulation of sub-G1 population, single agent: did not induce apoptosis
SW480 cancer cells; SW480, highest concentration tested 100 μM
  cell death in cell cycle analysis: Cell death is noticed
NF-kB [2]; SW480-NFL, 25 ng/ml TNFα
  difference between the effects of 0.5 μM and 5 μM on TNFα-activated NF-kB reporter: over 10 fold
NF-kB [2]; SW480-NFL, 25 ng/ml TNFα, 5 μM or 10 μM compound
  activation of NF-kB reporter activity by TNFα: completely abolished
NF-kB [2]; SW480-NFL, 24 hours after treatment
  basal luciferase reporter activity: reduced the reporter activity
NF-kB [2]; SW480 reporter cells, 0.5 μM CPT, 0.2 μM BEI-9
  effect on CPT-induced NF-kB reporter activity: did not have any noticeable effect
NF-kB [2]; SW480 reporter cells, 0.5 μM CPT, BEI-9 concentrations greater than 0.8 μM, versus CPT-only
  inhibition of CPT-induced NF-kB response: more than 50%
HCT116 cells [3]
  viability index (absorbance 490 nm): decreased the viability index
HCT116 cells [4]
  proliferation of HCT116 cells: completely stopped the proliferation
Cyclin A
  expression of cyclin A protein: drastically decreased
SW480 colon cancer cells [5]; SW480, within 48 hours, relative to control solvent DMSO
  reduction of cancer cell viability and proliferation: about 60%
Luciferase [6]
  direct inhibition of luciferase: does not inhibit luciferase
Cyclin D1
  expression of cyclin D1 protein: drastically decreased
SW480 cells [7]
  sign of cell apoptosis, single agent: fails to indicate any sign of cell apoptosis
SW480 cells [7]; SW480, 5 μM compound combined with 25 ng/ml TNFα
  sign of cell apoptosis, combination with TNFα: appearance of cells with membrane blebs
SW480 colon cancer cells [8]
  recovery of cells after wash-out: not able to recover at all
Luciferase [9]
  inhibition of luciferase by competing with cellular ATP: does not inhibit luciferase
SW480 cells [10]
  motility, ability to migrate and fill the wound gap: markedly inhibited the motility
SW480 colon cancer cells [11]
  cytotoxicity at 12.5 µM: ~50%

## COc1ccc2[nH]ccc2c1 [5-methoxyindole, reference compound]
Cyclin A
  expression of cyclin A protein: did not exhibit the same beneficial effects
Cyclin D1
  expression of cyclin D1 protein: did not exhibit the same beneficial effects

## CC[C@@]1(O)C(=O)OCc2c1cc1n(c2=O)Cc2cc3ccccc3nc2-1 [camptothecin]
NF-kB [12]
  peak activating concentrations for NF-kB activation: 0.5 µM and 1.0 µM
SW480 cancer cells; SW480, flow cytometry
  apoptosis as accumulation of sub-G1 population, single agent: did not induce apoptosis

## OCc1c[nH]c2ccccc12 [indole-3-carbinol, reference compound]
SW480 colon cancer cells [5]
  reduction of cancer cell viability and proliferation: about 30%

## TNFα
SW480 cells [7]
  sign of cell apoptosis, single agent: fails to indicate any sign of cell apoptosis
